Where two headings read alike, the source gives them in different places.
Tests used:
Format in all cases: physicochemical
[1] = Solubility in toluene and methyl ethyl ketone at room temperature; settings: 10 ml, room temperature (25° C.), visual; for Solubility MEX: methyl ethyl ketone
Excerpt: The solubility shown in Table 23 represents the data obtained by rating the relevant values on the […] scale, wherein ⊚ stands for a value of not less than 5% by weight, ◯ for a value of not less than 1% by weight and less than 5% by weight, Δ for a value of not less than 0.1% by weight and less than 1% by weight, and X for a value of less than 0.1% by weight.

[2] = Maximum absorption wavelength by spectrophotometer
Experimental: Now, working examples and comparative examples will be described below. The maximum absorption wavelengths (λmax) reported in this invention are magnitudes determined in acetone.
The phthalocyanine compound obtained in the present example, i.e. VOPc(PhS)8{2,6-(CH3)2PhO}4{(C2H5)2NCH2CH2NH}4, was tested for maximum absorption wavelengths in acetone and in chloroform by the use of a spectrophotometer (made by Shimadzu Seisakusho Ltd. and sold under the trademark designation of “UVl-3100”).

[3] = Maximum absorption wavelength by spectrophotometer; remark: listed apart in the source

Substance	Max. absorption wavelength (in acetone) [2]	Max. absorption wavelength (in chloroform) [2]	Max. absorption wavelength (in acetone) [3]	Solubility MEX [1]	Solubility toluene [1]
VOPc(PhS)8{2,6-(CH3)2PhO}4{(C2H5)2NCH2CH2NH}4 [Example 1]	941 nm	960 nm		⊚ (a value of not less than 5% by weight)	⊚ (a value of not less than 5% by weight)
VOPc(2,5-Cl2PhO)8{2,6-(CH3)2PhO}4(PhCH2NH)4 [reference compound]	870 nm				
VOPc(PhS)8{2,6-(CH3)2PhO}4{CH3(CH2)5NH}4 [Example 15]	930 nm	948 nm		⊚ (a value of not less than 5% by weight)	⊚ (a value of not less than 5% by weight)
VOPc(PhS)8{2,6-(CH3)2PhO}4{CH3(CH2)7NH}4 [Example 18]	931 nm	950 nm		⊚ (a value of not less than 5% by weight)	⊚ (a value of not less than 5% by weight)
VOPc(PhS}8{2,6-(CH3)2PhO}4[{CH3(CH2)2CH}2NCH2CH2NH]4 [Example 4]	944 nm	963 nm		⊚ (a value of not less than 5% by weight)	⊚ (a value of not less than 5% by weight)
VOPc(PhS)8{2,6-(CH3)2PhO}4{CH3(CH2)3O(CH2)3NH}4 [Example 10]	930 nm	950 nm		⊚ (a value of not less than 5% by weight)	⊚ (a value of not less than 5% by weight)
VOPc(2,5-Cl2PhO)8{2,6-(CH3)2PhO}4{Ph(CH)3CHNH}3]F [reference compound]	834 nm				
VOPc(PhS)8{2,6-(CH3)2PhO}4{(CH3)2CHO(CH2)3NH}4 [Example 9]	930 nm	949 nm		⊚ (a value of not less than 5% by weight)	⊚ (a value of not less than 5% by weight)
VOPc(2,5-Cl2PhO)8{2,6-Br2-4-CH3PhO}4 {Ph(CH)3CHNH}3]F [reference compound]	840 nm				
CuPc(2,5-Cl2PhO)8{2,6-(CH3)2PhO}4(PhCH2NH)4 [reference compound]	807 nm				
VOPc(PhS)8{2,6-(CH3)2PhO}4{CH3(CH2)3CH(C2H5)CH2NH}4 [Example 16]	939 nm	958 nm		⊚ (a value of not less than 5% by weight)	⊚ (a value of not less than 5% by weight)

More lines, main results first:

Max. absorption wavelength (in acetone) [2]	Max. absorption wavelength (in chloroform) [2]	Max. absorption wavelength (in acetone) [3]	Substance	Solubility MEX [1]	Solubility toluene [1]
933 nm	952 nm		VOPc(PhS)8{2,6-(CH3)2PhO}4{CH3(CH2)3CH(C2H5)CH2O(CH2)3NH}4 [Example 11]	⊚ (a value of not less than 5% by weight)	⊚ (a value of not less than 5% by weight)
928 nm	947 nm		VOPc(PhS)8{2,6-(CH3)2PhO}4{(CH3CH2O(CH2)3NH}4 [Example 8]	⊚ (a value of not less than 5% by weight)	⊚ (a value of not less than 5% by weight)
952 nm	970 nm		VOPc(PhS)8{2,6-(CH3)2PhO}4[{(CH3)2CH}2NCH2CH2NH]4 [Example 3]	⊚ (a value of not less than 5% by weight)	⊚ (a value of not less than 5% by weight)
834 nm			VOPc(4-CNPhO)8{2,6-(CH3)2PhO}4{Ph(CH)3CHNH}3F [reference compound]		
912 nm			VOPc(PhS)8{2,6-(CH3)2PhO}4(PhCH2NH)4 [reference compound]		
960 nm	980 nm	962 nm	VOPc{4-(CH3O)PhS}8{2,6-(CH3)2PhO}4{CH3(CH2)3CH(C2H5)CH2NH}4 [Example 17]	⊚ (a value of not less than 5% by weight)	⊚ (a value of not less than 5% by weight)
935 nm	954 nm		VOPc(PhS)8{2,6-(CH3)2PhO}4{CH3(CH2)17NH}4 [Example 19]	⊚ (a value of not less than 5% by weight)	⊚ (a value of not less than 5% by weight)
950 nm	970 nm		VOPc{2-(CH3O)PhS}8{2,6-(CH3)2PhO}4{(C2H5)2NCH2CH2NH}4 [Example 2]	⊚ (a value of not less than 5% by weight)	⊚ (a value of not less than 5% by weight)
